Experimental data reported in the supplement of paper PMC10307832.

Legend:
XMD13-2 = compound: C1CC1C(=O)NC2=NNC3=C2C=CC(=C3)C4=CC(=CC=C4)C(=O)NC5CC5 [XMD13-2]; experiment: relative viability (nuclei count vs DMSO), 5 days (fraction); higher = more cells survive
How it was run: (§1)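 Five library-drug doses, separated by factors of √10, were pinned into 1536-well plates holding lung cancer cell lines after an overnight stay at 37 °C. Cells were fixed, permeabilised and Hoechst-stained in one step after 5 days without medium change, then imaged at 4×. Viability compares treated-well with vehicle-well nuclei, counted in MetaXpress, as a median across plates. Passing plates had control CV below 25% and at least one doubling.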

Dasatinib = compound: Cc1nc(Nc2ncc(C(=O)Nc3c(C)cccc3Cl)s2)cc(N2CCN(CCO)CC2)n1 [Dasatinib]; experiment: as above
How it was run: as §1

| Cell Line | relative viability (XMD13-2; 0.05 µM) | relative viability (XMD13-2; 0.1581 µM) | relative viability (XMD13-2; 0.5 µM) | relative viability (XMD13-2; 1.581 µM) | relative viability (XMD13-2; 5 µM) | relative viability (Dasatinib; 0.005 µM) | relative viability (Dasatinib; 0.01581 µM) | relative viability (Dasatinib; 0.05 µM) | relative viability (Dasatinib; 0.075 µM, anchor plate) | relative viability (Dasatinib; 0.1581 µM) | relative viability (Dasatinib; 0.5 µM) |
| --- | --- | --- | --- | --- | --- | --- | --- | --- | --- | --- | --- |
| NCI-H2009 | 0.989 | 1.13 | 1.22 | 1.04 | 1.07 | 1.07 | 0.988 | 0.929 | 0.303 | 0.456 | 0.236 |
| NCI-H2023 | 1.18 | 1 | 0.992 | 0.986 | 1.02 | 0.883 | 0.888 | 0.735 | 0.592 | 0.648 | 0.593 |
| NCI-H2085 | 1.06 | 0.981 | 1.04 | 0.871 | 1.06 | 0.981 | 0.904 | 0.804 | 0.255 | 0.356 | 0.218 |
| NCI-H2087 | 1.3 | 1.19 | 1.17 | 1.01 | 0.962 | 1.02 | 0.941 | 1.23 | 0.856 | 0.937 | 0.453 |
| NCI-H2126 | 1.02 | 0.949 | 1.02 | 1.03 | 1.03 | 0.98 | 0.864 | 0.945 | 0.643 | 0.814 | 0.403 |
| NCI-H2170 | 1.03 | 0.954 | 0.986 | 1.01 | 0.881 | 0.961 | 0.914 | 0.784 | 0.61 | 0.585 | 0.378 |
| NCI-H2228 | 1.16 | 0.99 | 1.27 | 1.06 | 1.17 | 0.994 | 0.869 | 0.94 | 0.535 | 0.645 | 0.442 |
| NCI-H2342 | 1.1 | 0.97 | 1.03 | 0.804 | 0.972 | 0.967 | 0.632 | 0.834 | 0.311 | 0.535 | 0.309 |
| NCI-H2347 | 1.05 | 1.02 | 1.06 | 1.08 | 0.935 | 0.913 | 0.838 | 0.659 | 0.314 | 0.452 | 0.333 |
| NCI-H2405 | 1.09 | 0.986 | 1.05 | 0.883 | 1.08 | 0.842 | 0.726 | 0.533 | 0.205 | 0.305 | 0.222 |
| NCI-H3122 | 1.01 | 1 | 1.03 | 1.01 | 1.01 | 1.02 | 1.04 | 1.06 | 0.766 | 1.01 | 0.87 |
| PC-3 [JPC-3] | 1.06 | 1.05 | 1.06 | 1.02 | 1.17 | 1.08 | 1.01 | 1.04 | 0.971 | 1.02 | 0.59 |
| PC-14 | 1.08 | 1.04 | 1.07 | 0.98 | 1.13 | 1.12 | 0.98 | 0.877 | 0.264 | 0.65 | 0.234 |
| RERF-LC-KJ | 1.08 | 0.942 | 1.05 | 0.938 | 0.912 | 1.01 | 0.928 | 0.944 | 0.781 | 0.841 | 0.704 |
| SK-LU-1 | 1.07 | 1.03 | 1.19 | 1.05 | 0.924 | 0.823 | 0.542 | 0.42 | 0.174 | 0.312 | 0.25 |
| SK-MES-1 | 1.13 | 1.01 | 1.03 | 0.968 | 1.07 | 1.05 | 0.922 | 0.964 | 0.385 | 0.61 | 0.215 |
| SW 900 | 0.96 | 0.765 | 0.924 | 0.741 | 1.03 | 0.67 | 0.733 | 0.647 | 0.701 | 0.405 | 0.254 |
| SW 1573 | 1.08 | 0.998 | 1.09 | 0.941 | 0.874 | 0.931 | 0.915 | 0.839 | 0.517 | 0.672 | 0.564 |
